Earlier results as cited in patent publication US6423339B1, “Liquisolid systems and methods of preparing same” (priority 1996, dated 2002).

How the values were obtained:
[1] = diuretic

SMILES	Solubility in alcohol (descriptive)	Solubility in chloroform (descriptive)	Solubility in water (descriptive)	Volume of alcohol in which 1 gram of drug is soluble (per 1 gram of drug)	Volume of chloroform in which 1 gram of drug is soluble (per 1 gram of drug)	also measured
CCOC(=O)C(C)(C)Oc1ccc(Cl)cc1 [Clofibrate]	soluble	soluble	insoluble (1 part solute into 10,000 or more parts of water)			Solubility in other common organic solvents (descriptive): soluble; Stability (descriptive) (liquid drug): stable
Cc1ccc(C)c(OCCCC(C)(C)C(=O)O)c1 [Gemflbrozil]			practically water-insoluble (1 part solute into 10,000 or more parts of water)			
NS(=O)(=O)c1cc2c(cc1Cl)NCNS2(=O)=O [Hydrochlorothiazide]						Potency relative to chlorothiazide [1]: 10 times
CN1C(CCl)Nc2cc(Cl)c(S(N)(=O)=O)cc2S1(=O)=O (centres unmarked) [Methyclothiazide]				92.5 mL	more than 10,000 ml	Solubility in acetone (descriptive): freely soluble; pka: 9.4; Volume of ether in which 1 gram of drug is soluble (per 1 gram of drug): 2,700 ml; Volume of water in which 1 gram of drug is soluble (per 1 gram of drug): more than 10,000 ml
C[C@]12C=CC(=O)C=C1CC[C@@H]1[C@@H]2C(=O)C[C@@]2(C)[C@H]1CC[C@]2(O)C(=O)CO [Prednisone]			very slightly soluble	150 mL	200 mL	
CC(=O)S[C@@H]1CC2=CC(=O)CC[C@]2(C)[C@H]2CC[C@@]3(C)[C@@H](CC[C@@]34CCC(=O)O4)[C@H]12 [Spironolactone]	soluble	freely soluble	practically insoluble			Solubility in fixed oils (descriptive): slightly soluble
